Data on two compounds can be found in patent US12331094B2 (Bayer Aktiengesellschaft, priority 2018, dated 2025).

Positions of bridges follow the written chain, without caps; N, C: chain ends. Residues, ends and D or L forms follow the SMILES beside them.

Data set [1] deals with T1, neutral endopeptidase (NEP) (Homo sapiens, UniProt P08473).
T1 construct: purchased R&D Systems 1182-ZNC
In words: Sensitivity towards proteolytic degradation by NEP (reporter cell activity after incubation). The data set is classed as in vitro ADME. The conditions noted are these: 4 hours incubation with 0.6 μg/ml NEP at 37° C., then reporter cell activity.

Data set [2] deals with T2, insulin degrading enzyme (IDE) (Rattus norvegicus, UniProt P35559).
T2 sequence (P35559 1-1019): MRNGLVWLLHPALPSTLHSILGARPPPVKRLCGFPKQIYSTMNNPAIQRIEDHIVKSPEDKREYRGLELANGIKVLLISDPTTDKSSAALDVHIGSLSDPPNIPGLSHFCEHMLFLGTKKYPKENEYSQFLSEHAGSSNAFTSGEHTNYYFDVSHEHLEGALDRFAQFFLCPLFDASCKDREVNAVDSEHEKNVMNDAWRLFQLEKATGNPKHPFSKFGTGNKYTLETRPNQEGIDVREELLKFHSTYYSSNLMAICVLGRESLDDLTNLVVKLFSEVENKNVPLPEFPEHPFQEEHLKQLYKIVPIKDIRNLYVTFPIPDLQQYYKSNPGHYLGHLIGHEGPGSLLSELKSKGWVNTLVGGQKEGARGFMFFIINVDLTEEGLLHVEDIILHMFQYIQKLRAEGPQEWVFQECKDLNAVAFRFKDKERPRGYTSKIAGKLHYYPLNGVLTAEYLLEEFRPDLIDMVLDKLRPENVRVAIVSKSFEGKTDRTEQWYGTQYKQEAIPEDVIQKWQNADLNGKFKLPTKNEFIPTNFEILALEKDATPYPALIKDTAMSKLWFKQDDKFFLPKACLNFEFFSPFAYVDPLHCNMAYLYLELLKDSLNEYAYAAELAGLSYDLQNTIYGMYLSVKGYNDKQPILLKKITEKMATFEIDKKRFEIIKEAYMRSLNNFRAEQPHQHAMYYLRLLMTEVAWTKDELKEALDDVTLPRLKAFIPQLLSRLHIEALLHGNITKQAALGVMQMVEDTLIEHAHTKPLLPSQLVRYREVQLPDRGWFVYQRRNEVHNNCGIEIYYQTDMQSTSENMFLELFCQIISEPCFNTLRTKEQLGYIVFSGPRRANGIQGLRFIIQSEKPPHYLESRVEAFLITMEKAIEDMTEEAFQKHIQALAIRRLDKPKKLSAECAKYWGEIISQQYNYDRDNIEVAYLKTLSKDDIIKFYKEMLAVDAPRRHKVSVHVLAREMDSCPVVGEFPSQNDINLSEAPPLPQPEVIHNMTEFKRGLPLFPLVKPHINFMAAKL
In words: Sensitivity towards proteolytic degradation by IDE (reporter cell activity after incubation). The conditions noted are these: 4 hours incubation with 0.6 μg/ml IDE at 37° C., then reporter cell activity.

Data set [3] deals with spontaneously hypertensive rats. In words: Radiotelemetric blood pressure in conscious spontaneously hypertensive rats. The conditions noted are these: 500 μg dose intraperitoneally. Format: in vivo, rat. As to the method: Blood pressure and heart rate were monitored in freely moving conscious animals by radiotelemetry (Data Sciences International). Female spontaneously hypertensive rats (SHR/N Crl BR, Charles River) with a body weight of 210-300 g were used for these studies. All animals were housed in individual cages at 22-24° C. ambient temperature and maintained on a 12-hour light/dark cycle with free access to standard laboratory rat chow and water ad libitum. Telemeter (HD-10, DSI) implantation was performed a minimum of 14 days before animals were used for blood pressure measurements. Surgery was performed under aseptic conditions. After shaving the abdominal wall, a midline abdominal incision was made, and the fluid-filled sensor catheter was inserted upstream into the exposed descending aorta between the iliac bifurcation and the renal arteries. According to the DSI guidelines the tip of the telemetric catheter was located caudal to the renal arteries and secured by tissue adhesive. The transmitter body was affixed to the inner peritoneal wall before closure of the abdomen. […] Data are expressed as % of basal values±SEM of at least 4 animals per group. The basal value for each animal was calculated as the average of the values measured in two hours prior to substance application (7:00-9:00 AM). Data are then expressed as averages every half hour, starting 15 minutes post application. […]

The test system of data set [4] is PE-contracted aortic rings. In words: Vasorelaxation of isolated phenylephrine-contracted rat aortic rings. As to the method:
All experiments were conducted in accordance with institutional guidelines and approved by the local committee on animal experiments. Male Sprague-Dawley rats (weighing 250-300 g) were anesthetized with pentobarbital sodium (40 mg/kg i.p.), killed by decapitation, and exsanguinated. The thoracic aorta was excised and placed in ice-cold Krebs buffer of the following composition: 130 mM NaCl, 14.9 mM NaHCO3, 5.5 mM dextrose, 4.7 mM KCl, 1.18 mM KH2PO4, 1.17 mM MgSO47H2O, and 1.6 mM CaCl22H2O. The vessel was pinned in a Sylgard Petri dish filled with chilled Krebs' solution, cleaned of fat and connective tissue, and cut into ring segments of approximately 3 to 4 mm in length. […] Changes in isometric force were recorded using a PowerLab data acquisition system (software Lab Chart 7.0)
After the equilibration period, aortic rings were challenged with 80 mM KCl to check tissue viability. Next, the endothelial integrity of the preparations was determined by verifying the responsiveness to acetylcholine (ACh, 1 μM) in vessels pre-contracted with Phenylephrine (PE, 1 μM). After wash-out and a period of equilibration, Phenylephrine (PE, 1 μM) was used to induce contraction, thereafter natriuretic peptides and natriuretic peptide engrafted IgGs were evaluated for vasorelaxation.

T1 sequence (P08473 52-750 limits assumed): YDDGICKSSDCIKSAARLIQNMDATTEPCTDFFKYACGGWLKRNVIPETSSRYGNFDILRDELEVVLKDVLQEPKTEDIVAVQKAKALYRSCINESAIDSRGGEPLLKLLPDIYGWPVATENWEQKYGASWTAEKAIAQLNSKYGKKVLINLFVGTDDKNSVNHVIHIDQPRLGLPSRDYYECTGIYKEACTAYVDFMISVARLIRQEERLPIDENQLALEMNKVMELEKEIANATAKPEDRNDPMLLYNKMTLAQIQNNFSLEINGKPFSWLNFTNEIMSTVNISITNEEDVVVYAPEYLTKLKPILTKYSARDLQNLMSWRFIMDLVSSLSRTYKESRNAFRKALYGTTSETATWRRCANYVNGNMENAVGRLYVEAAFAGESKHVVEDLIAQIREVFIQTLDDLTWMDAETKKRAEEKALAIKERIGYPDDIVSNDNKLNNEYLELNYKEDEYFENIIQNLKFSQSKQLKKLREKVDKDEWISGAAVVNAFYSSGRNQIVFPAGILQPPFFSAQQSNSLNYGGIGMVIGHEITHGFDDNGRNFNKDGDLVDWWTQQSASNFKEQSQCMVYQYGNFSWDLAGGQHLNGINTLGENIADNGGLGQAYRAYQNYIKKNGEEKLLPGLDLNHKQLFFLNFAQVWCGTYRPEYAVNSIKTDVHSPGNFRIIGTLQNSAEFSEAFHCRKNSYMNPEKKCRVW

For the compound `CC[C@H](C)[C@@H]1NC(=O)[C@H](CCCNC(=N)N)NC(=O)[C@H](CC(=O)O)NC(=O)[C@H]([C@@H](C)CC)NC(=O)[C@H](CCCCN)NC(=O)[C@H](CCC(N)=O)NC(=O)CNC(=O)[C@H](Cc2ccccc2)NC(=O)[C@@H](NC(=O)[C@H](CO)NC(=O)[C@H](CO)NC(=O)[C@H](CO)NC(=O)[C@H](Cc2c[nH]cn2)NC(=O)[C@H](C)NC(=O)[C@H](CCSC)NC(=O)[C@H](CCCCN)NC(=O)[C@H](CO)NC(=O)[C@@H](N)CC(N)=O)CSSC[C@@H](C(=O)N[C@@H](CC(=O)O)C(=O)NCC(=O)N[C@@H](CC(C)C)C(=O)N[C@@H](CCCNC(=N)N)C(=O)N[C@@H](CC(C)C)C(=O)N[C@@H](Cc2ccccc2)C(=O)O)NC(=O)CNC(=O)[C@H](CC(C)C)NC(=O)[C@H](CCCNC(=N)N)NC(=O)[C@H](CO)NC(=O)[C@H](C(C)C)NC(=O)[C@H](C)NC(=O)CNC1=O` [BNP, Brain Natriuretic Peptide, reference compound] (H-NSKMAHSSSCFGQKIDRIGAVSRLGCDGLRLF-OH; disulfide 10-26; N-terminus and C-terminus assumed), in data set [1], the “proteolytic degradation by NEP” value is listed as “high sensitivity”. Also, the “proteolytic degradation by IDE” value in data set [2] is “high sensitivity”.
With “ANP peptide: Rat ANP peptide (ADH-GM-10057T, Santai Labs) used as a reference (SLRRSSCFGGRIDRIGAQSGLGCNSFRY) [reference compound]”, in data set [3], the “drop in mean arterial blood pressure (MAP)” value is “approximately 25%” and the duration of effect fell in the range of 6 to 8 h. Besides, in data set [4], the “vasodilation in PE-contracted aortic rings” value is “dose-dependent vasodilation”. For the same compound, in data set [4] (vasodilation, endothelium-intact rat aortic rings contracted by phenylephrine (1 μM)), the “Potency (log EC50 values)” value is recorded as −7.4.
